Laboratory results taken from US7943382B2, “Method for inspecting fat-soluble vitamin and/or fat-soluble food factor by saliva analysis” (Mitsubishi Chemical Medience Corporation, priority 2004, dated 2011).

Key:
[1] = Correlation between the blood level and the content in saliva (CoQ10 ingestion tests part 1 and 2); format: in vivo, human
Experimental: 11 volunteers were made to ingest orally two tablets (CoQ10 content: 100 mg in two tablets) of Q10AA Multi (trade name, Shiseido Co., Ltd., hereinafter may be referred to “Supplement S”), a commercial CoQ10 supplement, at 7:00 every morning continuously for a week. Meanwhile, the contents of the fat-soluble vitamins and fat-soluble food factors in the Supplement S are 50 mg/tablet as for CoQ10, and 16.4 mg/tablet as for α-tocopherol. Then parotid saliva, directly collected saliva and heparinized plasma were collected from PM 4:00 to 5:00, three times, before and one week after ingestion and two weeks after discontinuation of ingestion. The volunteer had the mouth rinsed with water, and kept quiet on a chair for 5 minutes, while the volunteer accumulated saliva in the oral cavity and discharge to initialize the oral cavity, followed by collecting saliva. Approximately 1 ml of saliva accumulated in the oral cavity was collected as directly collected saliva. In order to collect saliva from the parotid gland, an absorbent cotton of 2 g was put beneath the tongue to prevent contamination with saliva from sublingual gland and submandibular gland, while the Saliva-sampler comprising a cotton saliva absorber and an indicator which informed termination of collection by color change was inserted between the teeth and the cheek near the open of the parotid gland. […]

[2] = Extraction of CoQ10 from saliva and absorbent depending on deproteinization solvent; format: physicochemical
Experimental: In the method of preparing the specimens in examples 1 and 2, the solvents were weighed using ethanol (90, 75, 50%), isopropanol (90, 75, 50%) or methanol (90, 75, 50%). Saliva of 600 μl, and 600, 1800 and 5400 μl of the solvent respectively were added to 50 mg of an absorbent to have a final concentrations of 50, 75 and 90% (V/V) respectively. The resultant solution was mixed, stirred, and centrifuged at 4° C. by 1000 G to get a supernatant, 20 μl of which was used to analyze CoQ10 by HPLC. As a result, the values shown in the following Table 2 “The CoQ10 concentrations in the supernatant obtained by deproteinizing saliva in three solvents and at three concentration levels (ng/ml)” were obtained. Ethanol, which was not affected by adsorption to proteins even at a concentration of 75% and could efficiently extract, was confirmed to be most suitable.

[3] = Adsorption of CoQ10 in saliva to absorbent materials (no extraction); format: physicochemical
Experimental: In the method of preparing the specimens in example 2, the absorbent materials for saliva were weighed. 50 mg of an absorbent was soaked in 600 μl of saliva, 20 μl of saliva was fractionated to analyze the CoQ10 concentration in saliva transuaded from the absorbent, to which 180 μl of isopropanol was added, mixed, and centrifuged at 4° C. by 1000 G for 5 minutes to remove proteins, and 20 μl of the supernatant was subjected to HPLC. The results of analysis for CoQ10 are shown in Table 1 as “CoQ10 concentrations in saliva which was obtained by steps that 50 mg of the absorbent was soaked in 600 μl of saliva and the saliva was preserved in the interspace of the absorbent”. It took about 3 minutes to secrete 1 ml of parotid saliva for the volunteers who spent little time, and 10 minutes or longer for the volunteers who spent lots of time, therefore it is practically difficult to collect without the absorbent. In this case, the fat-soluble food factors and the fat-soluble vitamins are adsorbed by any absorbent materials for saliva such as polyester, cotton and acetylcellulose. Although it is lowly absorptive, polyurethane fills water in saliva as bound water, so that condensation is caused, resulting in apparently high level (Refer to Table 1). Consequently, the adsorbed component should be extracted. […] That means, a certain amount of saliva should be absorbed to a certain amount of absorbent in the oral cavity.

[4] = 50 mg Acetylcellulose soaked in 600 μl of saliva
[5] = 50 mg Cotton soaked in 600 μl of saliva
[6] = 50 mg Polyester soaked in 600 μl of saliva
[7] = 50 mg Polyurethane soaked in 600 μl of saliva

correlation between concentrations in parotid saliva and plasma ([1]; 112 specimens of examples 2 and 3, FIG. 5): good correlation
correlation between levels in directly collected saliva and plasma ([1]; FIG. 6): weak but recognizable correlation
Collection amount of CoQ10 by the solvents ([2]; ethanol 50 V/V %): 3 ng/mL
Collection amount of CoQ10 by the solvents ([2]; ethanol 75 V/V %): 86 ng/mL
Collection amount of CoQ10 by the solvents ([2]; ethanol 90 V/V %): 98 ng/mL
Collection amount of CoQ10 by the solvents ([2]; isopropanol 50 V/V %): 23 ng/mL
Collection amount of CoQ10 by the solvents ([2]; isopropanol 75 V/V %): 19 ng/mL
Collection amount of CoQ10 by the solvents ([2]; isopropanol 90 V/V %): 56 ng/mL
Collection amount of CoQ10 by the solvents ([2]; methanol 50 V/V %): 2 ng/mL
Collection amount of CoQ10 by the solvents ([2]; methanol 75 V/V %): 2 ng/mL
Collection amount of CoQ10 by the solvents ([2]; methanol 90 V/V %): 61 ng/mL
CoQ10 concentration in saliva preserved in the interspace of the absorbent [3, 4]: 25 ng/mL
Collection rate [3, 4]: 7.3%
CoQ10 concentration in saliva preserved in the interspace of the absorbent [3, 5]: 3.4 ng/mL
Collection rate [3, 5]: 10.2%
CoQ10 concentration in saliva preserved in the interspace of the absorbent [3, 6]: 19.6 ng/mL
Collection rate [3, 6]: 58.2%
CoQ10 concentration in saliva preserved in the interspace of the absorbent [3, 7]: 59.8 ng/mL
Collection rate [3, 7]: 178%
CoQ10 concentration in saliva ([3]; Saliva (control), no absorbent): 33.7 ng/mL
Collection rate ([3]; Saliva (control), no absorbent): 100%
Structure (SMILES): COC1=C(OC)C(=O)C(C/C=C(\C)CC/C=C(\C)CC/C=C(\C)CC/C=C(\C)CC/C=C(\C)CC/C=C(\C)CC/C=C(\C)CC/C=C(\C)CC/C=C(\C)CCC=C(C)C)=C(C)C1=O [CoQ10, Ubidecarenone]
